Test results published in patent US20100022491A1, “4-HYDROXY-2-OXO-2,3-DIHYDRO-1,3-BENZOTHIAZOL-7YL COMPOUNDS FOR MODULATION OF B2-ADRENORECEPTOR ACTIVITY” (ASTRAZENECA AB, priority 2006, published 2010).
Counter-ions that a name gives are not always drawn.

Legend:
[1] = target: T1, Adrenergic β2 (Homo sapiens, UniProt P07550); test: Adrenergic β2 mediated cAMP production in H292 cells; format: cell-based; details: for EC50: H292 cells, cAMP by AlphaScreen, 60 minutes at room temperature, rolipram 300 μM, read-out: β2 pEC50 (converted); for β2 Int Act: Intrinsic Activity as a fraction relative to the maximum activity determined for formoterol
T1 construct: Adherent H292 cells were removed from tissue culture flasks; endogenous in cells; host or cells: H292 cells
Experimental: Adrenergic β2 mediated cAMP production
H292 cells were grown in 225 cm2 flasks incubator at 37° C., 5% CO2 in RPMI medium containing, 10% (v/v) FBS (foetal bovine serum) and 2 mM L-glutamine.
Adherent H292 cells were removed from tissue culture flasks by treatment with Accutase™ cell detachment solution for 15 minutes. Flasks were incubated for 15 minutes in a humidified incubator at 37° C., 5% CO2. Detached cells were re-suspended in RPMI media (containing 10% (v/v) FBS and 2 mM L-glutamine) at 0.05×10^6 cells per mL. 5000 cells in 100 μL were added to each well of a tissue-culture-treated 96-well plate and the cells incubated overnight in a humidified incubator at 37° C., 5% CO2. The culture media was removed and cells were washed twice with 100 μL assay buffer and replaced with 50 μL assay buffer (HBSS solution containing 10 mM HEPES pH7.4 and 5 mM glucose). Cells were rested at room temperature for 20 minutes after which time 25 μL of rolipram (1.2 mM made up in assay buffer containing 2.4% (v/v) dimethylsulphoxide) was added. Cells were incubated with rolipram for 10 minutes after which time test compounds were added and the cells were incubated for 60 minutes at room temperature. The final rolipram concentration in the assay was 300 μM and final vehicle concentration was 1.6% (v/v) dimethylsulphoxide. The reaction was stopped by removing supernatants, washing once with 100 μL assay buffer and replacing with 50 μL lysis buffer. The cell monolayer was frozen at −80° C. for 30 minutes (or overnight).
The concentration of cAMP (cyclic adenosine monophosphate) in the cell lysate was determined using AlphaScreen™ methodology. The frozen cell plate was thawed for 20 minutes on a plate shaker then 10 μL of the cell lysate was transferred to a 96-well white plate. 40 μL of mixed AlphaScreen™ detection beads pre-incubated with biotinylated cAMP, was added to each well and the plate incubated at room temperature for 10 hours in the dark. The AlphaScreen™ signal was measured using an EnVision spectrophotometer (Perkin-Elmer Inc.) with the recommended manufacturer's settings. cAMP concentrations were determined by reference to a calibration curve determined in the same experiment using standard cAMP concentrations. Concentration response curves for agonists were constructed and data was fitted to a four parameter logistic equation to determine both the pEC50 and Intrinsic Activity. Intrinsic Activity was expressed as a fraction relative to the maximum activity determined for formoterol in each experiment.

[2] = target: T2, recombinant human α1D receptor (Homo sapiens, UniProt P25100); test: Adrenergic α1D selectivity binding assay ([3H]-prazosin); details: inhibition of [3H]-prazosin (0.3 nM) binding, HEK293 membranes; read-out: α1 bind pIC50 (converted)
T2 construct: expressed in transfected cells; host or cells: HEK293
T2 sequence (P25100 1-572): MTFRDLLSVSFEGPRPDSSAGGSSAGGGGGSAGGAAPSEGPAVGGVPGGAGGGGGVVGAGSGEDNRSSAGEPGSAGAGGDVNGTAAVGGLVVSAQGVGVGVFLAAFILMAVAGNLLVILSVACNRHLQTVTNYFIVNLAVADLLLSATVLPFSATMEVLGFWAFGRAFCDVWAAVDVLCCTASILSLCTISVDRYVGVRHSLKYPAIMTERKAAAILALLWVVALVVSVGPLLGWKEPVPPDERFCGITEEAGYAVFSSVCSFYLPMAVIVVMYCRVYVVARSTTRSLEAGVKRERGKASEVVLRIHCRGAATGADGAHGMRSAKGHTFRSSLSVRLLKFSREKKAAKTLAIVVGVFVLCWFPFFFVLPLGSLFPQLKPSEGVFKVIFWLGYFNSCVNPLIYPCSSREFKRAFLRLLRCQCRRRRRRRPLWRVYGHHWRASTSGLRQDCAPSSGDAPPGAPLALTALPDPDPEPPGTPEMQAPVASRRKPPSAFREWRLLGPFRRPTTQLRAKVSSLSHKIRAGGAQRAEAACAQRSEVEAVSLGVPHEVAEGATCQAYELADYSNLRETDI
Experimental: Membranes were prepared from human embryonic kidney 293 (HEK293) cells expressing recombinant human α1D receptor. These were diluted in Assay Buffer (50 mM HEPES, 1 mM EDTA, 0.1% gelatin, pH 7.4) to provide a final concentration of membranes that gave a clear window between maximum and minimum specific binding.
(§1) Assays were performed in U-bottomed 96-well polypropylene plates. 10 μL [^3H]-prazosin (0.3 nM final concentration) and 10 μL of test compound (10× final concentration) were added to each test well. For each assay plate 8 replicates were obtained for [^3H]-prazosin binding in the presence of 10 μL vehicle (10% (v/v) DMSO in Assay Buffer; defining maximum binding) or 10 μL BMY7378 (10 μM final concentration; defining non-specific binding (NSB)). Membranes were then added to achieve a final volume of 100 μL. The plates were incubated for 2 hours at room temperature and then filtered onto PEI coated GF/B filter plates, pre-soaked for 1 hour in Assay Buffer, using a 96-well plate Tomtec cell harvester. Five washes with 250 μL wash buffer (50 mM HEPES, 1 mM EDTA, pH 7.4) were performed at 4° C. to remove unbound radioactivity. The plates were dried then sealed from underneath using Packard plate sealers and MicroScint-O (50 μL) was added to each well. The plates were sealed (TopSeal A) and filter-bound radioactivity was measured with a scintillation counter (TopCount, Packard BioScience) using a 3-minute counting protocol.
(§2) Total specific binding (B0) was determined by subtracting the mean NSB from the mean maximum binding. NSB values were also subtracted from values from all other wells. […] Data was fitted to a four parameter logistic equation to determine the compound potency, which was expressed as pIC50 (negative log molar concentration inducing 50% inhibition of [^3H]-prazosin binding).

[3] = target: T3, recombinant human adrenergic beta 1 receptors (Homo sapiens, UniProt P08588); test: Adrenergic β1 selectivity binding assay ([125I]-Iodocyanopindolol); details: inhibition of [125I]-Iodocyanopindolol (0.036 nM) binding; read-out: β1 bind p IC50 (converted)
T3 construct: purchased Euroscreen
Experimental: (§3) Membranes containing recombinant human adrenergic beta 1 receptors were obtained from Euroscreen. These were diluted in Assay Buffer (50 mM HEPES, 1 mM EDTA, 120 mM NaCl, 0.1% gelatin, pH 7.4) to provide a final concentration of membranes that gave a clear window between maximum and minimum specific binding.
as §1, with “[^125I]-Iodocyanopindolol (0.036” for “[^3H]-prazosin (0.3”, “[^125I]-Iodocyanopindolol” for “[^3H]-prazosin”, “Propranolol” for “BMY7378”, “EDTA, 120 mM NaCl,” for “EDTA,”
as §2, with “[^125I]-Iodocyanopindolol” for “[^3H]-prazosin”

[4] = target: T4, recombinant human Dopamine Subtype D2s receptors (Homo sapiens, UniProt P14416); test: Dopamine D2 selectivity binding assay ([3H]-spiperone); details: inhibition of [3H]-spiperone (0.16 nM) binding; read-out: D2 bind pIC50 (converted)
T4 construct: purchased Perkin Elmer
Experimental: as §3, with “Dopamine Subtype D2s” for “adrenergic beta 1”, “Perkin Elmer.” for “Euroscreen.”
Assays were performed in U-bottomed 96-well polypropylene plates. 30 μL [^3H]-spiperone (0.16 nM final concentration) and 30 μL of test compound (10× final concentration) were added to each test well. For each assay plate 8 replicates were obtained for [^3H]-spiperone binding in the presence of 30 μL vehicle (10% (v/v) DMSO in Assay Buffer; defining maximum binding) or 30 μL Haloperidol (10 μM final concentration; defining non-specific binding (NSB)). Membranes were then added to achieve a final volume of 300 μL. The plates were incubated for 2 hours at room temperature and then filtered onto PEI coated GF/B filter plates, pre-soaked for 1 hour in Assay Buffer, using a 96-well plate Tomtec cell harvester. Five washes with 250 μL wash buffer (50 mM HEPES, 1 mM EDTA, 120 mM NaCl, pH 7.4) were performed at 4° C. to remove unbound radioactivity. The plates were dried then sealed from underneath using Packard plate sealers and MicroScint-O (50 μL) was added to each well. The plates were sealed (TopSeal A) and filter-bound radioactivity was measured with a scintillation counter (TopCount, Packard BioScience) using a 3-minute counting protocol.
as §2, with “[^3H]-spiperone” for “[^3H]-prazosin”

T1 sequence (P07550 whole entry): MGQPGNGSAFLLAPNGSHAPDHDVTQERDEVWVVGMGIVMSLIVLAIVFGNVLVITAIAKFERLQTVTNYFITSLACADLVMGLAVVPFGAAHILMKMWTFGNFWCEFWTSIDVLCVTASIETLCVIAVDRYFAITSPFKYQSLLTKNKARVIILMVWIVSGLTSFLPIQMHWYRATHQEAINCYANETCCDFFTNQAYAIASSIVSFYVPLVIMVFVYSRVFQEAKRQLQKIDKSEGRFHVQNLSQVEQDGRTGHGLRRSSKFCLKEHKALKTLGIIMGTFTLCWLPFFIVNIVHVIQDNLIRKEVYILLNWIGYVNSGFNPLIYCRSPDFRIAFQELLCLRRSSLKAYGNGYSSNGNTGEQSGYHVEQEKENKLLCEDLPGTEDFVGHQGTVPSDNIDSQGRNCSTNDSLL
T4 sequence (P14416 1-414 isoform P14416-2): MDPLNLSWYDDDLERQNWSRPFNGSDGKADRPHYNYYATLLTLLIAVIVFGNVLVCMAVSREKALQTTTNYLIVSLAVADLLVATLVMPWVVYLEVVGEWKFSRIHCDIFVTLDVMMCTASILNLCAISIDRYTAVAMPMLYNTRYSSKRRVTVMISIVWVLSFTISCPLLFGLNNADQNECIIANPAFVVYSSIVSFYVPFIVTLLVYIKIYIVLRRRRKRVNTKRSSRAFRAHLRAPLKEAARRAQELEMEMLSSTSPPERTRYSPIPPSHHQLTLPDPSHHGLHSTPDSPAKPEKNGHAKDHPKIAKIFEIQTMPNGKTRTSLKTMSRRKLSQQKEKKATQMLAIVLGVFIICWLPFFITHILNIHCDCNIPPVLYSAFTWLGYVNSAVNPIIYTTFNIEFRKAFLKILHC
T3 sequence (P08588 whole entry): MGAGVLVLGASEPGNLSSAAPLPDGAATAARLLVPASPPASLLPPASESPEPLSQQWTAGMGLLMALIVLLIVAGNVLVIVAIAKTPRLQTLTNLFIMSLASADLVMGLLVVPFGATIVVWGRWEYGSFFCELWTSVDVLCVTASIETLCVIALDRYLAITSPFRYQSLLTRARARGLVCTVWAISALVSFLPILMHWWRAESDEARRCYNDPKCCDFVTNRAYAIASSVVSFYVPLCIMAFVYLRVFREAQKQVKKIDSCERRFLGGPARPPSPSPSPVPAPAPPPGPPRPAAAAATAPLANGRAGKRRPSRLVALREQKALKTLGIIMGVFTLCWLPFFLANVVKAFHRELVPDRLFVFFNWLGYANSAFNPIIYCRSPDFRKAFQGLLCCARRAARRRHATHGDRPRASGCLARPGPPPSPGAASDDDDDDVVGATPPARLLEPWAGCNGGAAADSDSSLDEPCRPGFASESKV

| EC50 [1] | β2 Int Act [1] | IC50 [2] | IC50 [3] | IC50 [4] | SMILES |
| --- | --- | --- | --- | --- | --- |
| 7.94 nM | 0.59 | 631 nM | 1580 nM | – | O=C(CCNCCc1ccc(Cl)c(Cl)c1)N(CCNCCc1ccc(O)c2[nH]c(=O)sc12)C1CCC(F)(F)CC1 [Example 49, N^3-[2-(3,4-Dichlorophenyl)ethyl]-N^1-(4,4-difluorocyclohexyl)-N^1-(2-{[2-(4-hydroxy-2-oxo-2,3-dihydro-1,3-benzothiazol-7-yl)ethyl]amino}ethyl)-β-alaninamide bis-trifluoroacetic acid salt] |
| 126 nM | 0.86 | 1260 nM | – | 398 nM | O=C(CCNCCC(F)(F)F)N(CCNCCc1ccc(O)c2[nH]c(=O)sc12)C1CCCCC1 [Example 80, N^1-Cyclohexyl-N^1-(2-{[2-(4-hydroxy-2-oxo-2,3-dihydro-1,3-benzothiazol-7-yl)ethyl]amino}ethyl)-N^3-(3,3,3-trifluoropropyl)-β-alaninamide bis-trifluoroacetic acid salt] |
| 251 nM | 0.58 | 631 nM | – | 1260 nM | CC(=O)OCC(C)(C)CN(CCNCCc1ccc(O)c2[nH]c(=O)sc12)C(=O)CCNCCc1ccc(Cl)cc1 [Example 39, 3-[{N-[2-(4-Chlorophenyl)ethyl]-β-alanyl}(2-{[2-(4-hydroxy-2-oxo-2,3-dihydro-1,3-benzothiazol-7-yl)ethyl]amino}ethyl)amino]-2,2-dimethylpropyl acetate diacetic acid salt] |
